≈ marks a conversion by molar mass, not a printed value.
What was measured:
[1] = tested on: lymphosarcoma; assay: utility in treating certain tumours; assay type: in vivo, human
[2] = tested on: Bacillus mycoides; assay: bacteriostatic activity, dilution method in nutritive broth; assay type: cell-based; conditions: read-out: Minimal bacteriostatic concentration
[3] = tested on: Bacillus subtilis or Klebsiella pneumoniae; assay: paper chromatography with bioautography on seeded agar plates; assay type: cell-based; conditions: paper chromatogram
Text: The antibiotic is chromatographed on Arches No.302 paper impregnated with a pH 4.8 phosphate buffer, with n-butanol saturated with water, using descending development. The chromatogram is developed by bioautography on nutritive agar plates seeded with Bacillus subtilis or Klebsiella pneumoniae.

[4] = acute toxicity in the mouse; conditions: in vivo, sc
[5] = tested on: Neisseria catarrhalis (Fac.Phie); assay: bacteriostatic activity, dilution method in nutritive broth; assay type: cell-based; conditions: read-out: Minimal bacteriostatic concentration
[6] = tested on: Salmonella paratyphi A (Lacasse, Institut Pasteur); assay: as above; assay type: cell-based; conditions: Salmonella enterica, read-out: Minimal bacteriostatic concentration
[7] = tested on: acute myeloblastic leukemia; assay: utility in treating certain tumours; assay type: in vivo, human
[8] = tested on: Micrococcus lysodeikticus; assay: bacteriostatic activity, dilution method in nutritive broth; assay type: cell-based; conditions: Micrococcus luteus, read-out: Minimal bacteriostatic concentration
[9] = tested on: Streptococcus pyogenes Hemolyticus (strain Dig 7, Instut Pasteur); assay: as above; assay type: cell-based; conditions: read-out: Minimal bacteriostatic concentration
[10] = tested on: Escherichia coli - ATCC 9637; assay: as above; assay type: cell-based; conditions: ATCC9637, read-out: Minimal bacteriostatic concentration
Text: For each organism, the lowest concentration of substance has been determined which, under the defined condition, prevents all visible development in an appropriate nutritive broth. The results of various determinations are shown in Table VI, wherein the minimal bacteriostatic concentrations are expressed as micrograms of substance per cubic centimeter of experimental medium.

[11] = tested on: Proteus vulgaris (Fac. Phie); assay: as above; assay type: cell-based; conditions: read-out: Minimal bacteriostatic concentration
[12] = tested on: Streptococcus faecalis ATCC 9790; assay: as above; assay type: cell-based; conditions: Enterococcus faecalis, ATCC9790, read-out: Minimal bacteriostatic concentration
[13] = tested on: Pseudomonas aeruginosa (Bass strain - Institut Pasteur); assay: as above; assay type: cell-based; conditions: read-out: Minimal bacteriostatic concentration
[14] = tested on: Bacillus subtilis (strain ZO 5 A, Fac. Phie); assay: as above; assay type: cell-based; conditions: read-out: Minimal bacteriostatic concentration
[15] = tested on: blood-forming centers; assay: clinical safety of daunorubicin: blood formation; assay type: in vivo; conditions: human treatment
[16] = tested on: Salmonella typhimurium (Institut Pasteur); assay: bacteriostatic activity, dilution method in nutritive broth; assay type: cell-based; conditions: Salmonella enterica, read-out: Minimal bacteriostatic concentration
[17] = tested on: Staphylococcus aureus strain 3486 R; assay: as above; assay type: cell-based; conditions: read-out: Minimal bacteriostatic concentration
[18] = tested on: Sarcina alba (Fac.Phie); assay: as above; assay type: cell-based; conditions: read-out: Minimal bacteriostatic concentration
[19] = tested on: Staphylococcus aureus strain Hb; assay: as above; assay type: cell-based; conditions: read-out: Minimal bacteriostatic concentration
[20] = tested on: Lactobacillus casei - ATCC 7469; assay: as above; assay type: cell-based; conditions: Lacticaseibacillus casei, ATCC7469, read-out: Minimal bacteriostatic concentration
[21] = tested on: Staphylococcus aureus strain 1142 R; assay: as above; assay type: cell-based; conditions: read-out: Minimal bacteriostatic concentration
[22] = tested on: nephroblastoma; assay: utility in treating certain tumours; assay type: in vivo, human
[23] = tested on: Staphylococcus aureus strain B3; assay: bacteriostatic activity, dilution method in nutritive broth; assay type: cell-based; conditions: B3, read-out: Minimal bacteriostatic concentration
[24] = tested on: Staphylococcus aureus novobiocin resistant strain; assay: as above; assay type: cell-based; conditions: read-out: Minimal bacteriostatic concentration
[25] = subacute toxicity in the mouse (one dose per day for 5 days); conditions: in vivo
[26] = tested on: Salmonella schottmuelleri (paratyphi B) (Fougenc, Institut Pasteur); assay: bacteriostatic activity, dilution method in nutritive broth; assay type: cell-based; conditions: read-out: Minimal bacteriostatic concentration
[27] = tested on: Bacillus cereus ATCC 6630; assay: as above; assay type: cell-based; conditions: ATCC6630, read-out: Minimal bacteriostatic concentration
[28] = tested on: Mycobacterium smegmatis - ATCC 607; assay: as above; assay type: cell-based; conditions: Mycolicibacterium smegmatis, ATCC607, read-out: Minimal bacteriostatic concentration
[29] = tested on: neuroblastoma; assay: utility in treating certain tumours; assay type: in vivo, human
[30] = tested on: Alcaligenes faecalis - ATCC 8749; assay: bacteriostatic activity, dilution method in nutritive broth; assay type: cell-based; conditions: ATCC8749, read-out: Minimal bacteriostatic concentration
[31] = tested on: Serratia marcescens (A. 476,Lausanne); assay: as above; assay type: cell-based; conditions: read-out: Minimal bacteriostatic concentration
[32] = tested on: Staphylococcus aureus strain 662 R; assay: as above; assay type: cell-based; conditions: read-out: Minimal bacteriostatic concentration
[33] = tested on: Sarcina lutea - ATCC 9341; assay: as above; assay type: cell-based; conditions: Micrococcus luteus, ATCC9341, read-out: Minimal bacteriostatic concentration

Structure (SMILES): COc1cccc2c1C(=O)c1c(O)c3c(c(O)c1C2=O)C[C@@](O)(C(C)=O)C[C@@H]3O[C@H]1C[C@H](N)[C@H](O)[C@H](C)O1 [13057 RP daunorubicin, daunorubicin]
- utility in treating tumours [1]: proved to be of utility
- MIC [2]: 1.8 µg/mL (≈ 3.41 µM)
- active substance by bioautography [3]: active
- LD50 [4]: 47 mg/kg
- MIC [5]: 2.2 µg/mL (≈ 4.17 µM)
- MIC [6]: 16 µg/mL (≈ 30.3 µM)
- utility in treating tumours [7]: proved to be of utility
- MIC [8]: 2.5 µg/mL (≈ 4.74 µM)
- MIC [9]: 1.6 µg/mL (≈ 3.03 µM)
- MIC [10]: 500 µg/mL (≈ 948 µM)
- MIC [11]: > 2000 µg/mL
- MIC [12]: 30 µg/mL (≈ 56.9 µM)
- MIC [13]: 1000 µg/mL (≈ 1900 µM)
- MIC [14]: 1.5 µg/mL (≈ 2.84 µM)
- action on the blood-forming centers [15]: depressant action
- MIC [16]: 1000 µg/mL (≈ 1900 µM)
- MIC [17]: 5.2 µg/mL (≈ 9.86 µM)
- MIC [18]: 3.3 µg/mL (≈ 6.26 µM)
- MIC [19]: 5.3 µg/mL (≈ 10 µM)
- MIC [20]: 1.2 µg/mL (≈ 2.27 µM)
- MIC [21]: 2.1 µg/mL (≈ 3.98 µM)
- utility in treating tumours [22]: proved to be of utility
- MIC [23]: 5.2 µg/mL (≈ 9.86 µM)
- MIC [24]: 3.9 µg/mL (≈ 7.39 µM)
- LD50 ([25]; iv): 8.75 mg/kg
- LD50 ([25]; sc): 13.7 mg/kg
- MIC [26]: 1000 µg/mL (≈ 1900 µM)
- MIC [27]: 2.2 µg/mL (≈ 4.17 µM)
- MIC [28]: 1.2 µg/mL (≈ 2.27 µM)
- utility in treating tumours [29]: proved to be of utility
- MIC [30]: 1.8 µg/mL (≈ 3.41 µM)
- MIC [31]: 120 µg/mL (≈ 227 µM)
- MIC [32]: 6.3 µg/mL (≈ 11.9 µM)
- MIC [33]: 1.2 µg/mL (≈ 2.27 µM)
